Reference: article PMC11219860, “A chemogenetic approach for dopamine imaging with tunable sensitivity” (Nature Communications, 2024)

How the values were obtained:
Assay in all cases: NanoBit complementation assay of mini-Gs recruitment
Type in all cases: cell-based
[1] = molecular target: T1, msβ2AR (Mus musculus, UniProt P18762)
T1 construct: expressed in transfected cells; host or cells: HEK293T
Protocol: (§1) To measure the effect of DETQ on mini-G protein recruitment by different GPCRs we used a Nanoluciferase (NanoBit)-based complementation assay[26],[27]. For this HEK293T cells were seeded in six-well plates (Techno Plastic Products) at a density of 300,000 cells per well and co-transfected with plasmids encoding either hmDRD1, msDRD1, msDRD2, msDRD5, msADRA1a, msβ2AR or ms5HT6 carrying a C-terminally fused SmBiT, in combination with the corresponding mini-G protein probe[78] (mini-Gs: for DRD1, DRD5, β2AR, 5HT6R; mini-Gq: for ADRA1a; or mini-Gi: for DRD2), which were N-terminally fused to LgBiT, in a 1:1 DNA ratio using Effectene transfection reagent (Qiagen). 24 h after transfection cells were detached using Versene (ThermoFisher Scientific), washed, centrifuged (RT, 150 g, 3 min), and resuspended (0.5 × 10^6 cells ml^−1) in Fluorobrite DMEM (ThermoFisher Scientific) complemented with 30 mM HEPES (ThermoFisher Scientific). First, 95 µl of the cell suspension were added into each well of a white flat-bottom 96-well OptiPlate (PerkinElmer), then 25 µl of a 20-fold dilution of Nano-Glo reagent in LCS buffer (Promega) and last either 5 ul of pure Fluorobrite-DMEM or 5 ul of DETQ diluted in Fluorobrite DMEM (final concentration 100 nM for DRD1; 1 µM for all other receptors). The plate was incubated at 37 °C for 30 min, before the luminescence signal was measured at 37 °C using a Tecan Spark plate reader before and after the manual addition of 25 µl of either ligand solution (final concentrations ranging from 1 nM to 100 µM), pure Fluorobrite-DMEM or 25 µl of a DETQ solution (1 µM final concentration).
(§2) For in vitro luminescence assays, ligand traces were divided by buffer traces, the area under the curve for each trace was calculated using GraphPad Prism, values were normalized and fitted as dose response curve. The change in luminescence (∆L/L0) upon addition of different ligands was calculated as follows: (Lt – L0)/L0, with Lt being the Luminescence at ten timepoints t immediately after ligand application, and L0 being the luminescence of ten timepoints before ligand application. The statistical significance was determined using Welch’s ANOVA followed by Dunnett’s multiple comparison test (comparison of ligand or vehicle to ligand). For ex vivo imaging experiments, statistical analyses were performed in Prism (GraphPad) using independent samples t-test or nonparametric Mann-Whitney U-test when assumption of normality was violated (assessed using Schapiro-Wilk’s test). Curve fitting parameters were compared by extra sum-of-squares F test. For in vivo imaging experiments, statistical tests were paired and unpaired t-tests (two-tailed) and repeated-measures ANOVA for parametric data, while they were Wilcoxon rank sum tests or Mann-Whitney for non-parametric data. Sidak or Tukey post-hoc tests correcting for multiple comparisons were used in the case of significant interactions in ANOVA. All p-values are indicated in the Results section. […] No statistical methods were used to predetermine sample size. No data were excluded from the analyses. Group allocations used in this study were randomly assigned to animals and/or cultured cells. The Investigators were not blinded to allocation during experiments and outcome assessment.

[2] = molecular target: T2, msDRD1 (Mus musculus, UniProt Q61616)
T2 construct: expressed in transfected cells; host or cells: HEK293T
Protocol: as §1, §2

[3] = molecular target: hmDRD1 (Homo sapiens, UniProt P21728)
Protocol: as §1, §2

[4] = molecular target: T3, ms5HT6 (Mus musculus, UniProt Q9R1C8)
T3 construct: expressed in transfected cells; host or cells: HEK293T
Protocol: as §1, §2

[5] = molecular target: T4, msDRD5 (Mus musculus, UniProt Q8BLD9)
T4 construct: expressed in transfected cells; host or cells: HEK293T
Protocol: as §1, §2

Sequence of hmDRD1 (P21728 whole entry): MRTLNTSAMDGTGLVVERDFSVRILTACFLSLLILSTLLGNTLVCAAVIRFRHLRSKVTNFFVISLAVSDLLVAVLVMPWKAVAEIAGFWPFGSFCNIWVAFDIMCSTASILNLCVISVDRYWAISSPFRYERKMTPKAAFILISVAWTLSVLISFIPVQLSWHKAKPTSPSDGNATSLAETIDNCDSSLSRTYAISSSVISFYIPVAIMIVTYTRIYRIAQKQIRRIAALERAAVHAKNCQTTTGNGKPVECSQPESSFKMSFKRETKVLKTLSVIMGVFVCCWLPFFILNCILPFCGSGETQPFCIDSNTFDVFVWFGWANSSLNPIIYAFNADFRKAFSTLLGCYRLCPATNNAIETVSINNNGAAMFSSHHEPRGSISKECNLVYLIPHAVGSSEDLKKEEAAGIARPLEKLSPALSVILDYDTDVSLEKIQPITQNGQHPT
T3 sequence (Q9R1C8 whole entry): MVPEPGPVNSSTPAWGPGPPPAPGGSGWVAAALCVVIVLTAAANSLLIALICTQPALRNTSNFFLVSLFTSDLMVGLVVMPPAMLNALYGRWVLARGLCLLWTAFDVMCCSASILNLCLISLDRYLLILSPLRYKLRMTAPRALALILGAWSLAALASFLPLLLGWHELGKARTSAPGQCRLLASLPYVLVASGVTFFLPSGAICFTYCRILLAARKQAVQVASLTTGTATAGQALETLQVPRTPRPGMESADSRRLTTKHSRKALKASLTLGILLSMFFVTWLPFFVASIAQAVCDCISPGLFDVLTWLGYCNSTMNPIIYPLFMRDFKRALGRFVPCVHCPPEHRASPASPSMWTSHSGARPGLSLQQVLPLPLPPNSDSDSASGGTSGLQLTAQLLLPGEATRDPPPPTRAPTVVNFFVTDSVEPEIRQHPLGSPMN
T1 sequence (P18762 whole entry): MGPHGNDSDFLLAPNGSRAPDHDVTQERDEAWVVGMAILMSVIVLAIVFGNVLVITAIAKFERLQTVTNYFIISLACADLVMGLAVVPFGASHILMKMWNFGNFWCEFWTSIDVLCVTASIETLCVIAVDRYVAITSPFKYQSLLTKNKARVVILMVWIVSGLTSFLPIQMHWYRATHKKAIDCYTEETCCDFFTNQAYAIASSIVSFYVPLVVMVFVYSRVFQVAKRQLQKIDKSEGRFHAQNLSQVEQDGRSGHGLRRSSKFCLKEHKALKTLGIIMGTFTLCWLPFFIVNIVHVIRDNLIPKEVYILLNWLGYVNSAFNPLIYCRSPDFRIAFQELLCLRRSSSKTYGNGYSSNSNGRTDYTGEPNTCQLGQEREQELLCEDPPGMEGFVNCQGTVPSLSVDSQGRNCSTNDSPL
T2 sequence (Q61616 whole entry): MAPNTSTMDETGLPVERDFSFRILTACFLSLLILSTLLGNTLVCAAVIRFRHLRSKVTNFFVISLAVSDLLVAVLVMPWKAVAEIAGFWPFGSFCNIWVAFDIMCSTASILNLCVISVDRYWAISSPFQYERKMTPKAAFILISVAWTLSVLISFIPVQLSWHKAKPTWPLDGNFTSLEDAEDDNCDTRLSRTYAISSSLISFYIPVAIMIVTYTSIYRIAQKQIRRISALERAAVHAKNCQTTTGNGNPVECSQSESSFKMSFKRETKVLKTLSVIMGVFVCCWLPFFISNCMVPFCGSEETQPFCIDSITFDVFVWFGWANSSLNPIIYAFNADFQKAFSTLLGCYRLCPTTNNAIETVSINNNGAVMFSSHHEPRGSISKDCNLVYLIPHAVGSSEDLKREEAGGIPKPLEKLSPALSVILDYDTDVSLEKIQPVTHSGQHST
T4 sequence (Q8BLD9 whole entry): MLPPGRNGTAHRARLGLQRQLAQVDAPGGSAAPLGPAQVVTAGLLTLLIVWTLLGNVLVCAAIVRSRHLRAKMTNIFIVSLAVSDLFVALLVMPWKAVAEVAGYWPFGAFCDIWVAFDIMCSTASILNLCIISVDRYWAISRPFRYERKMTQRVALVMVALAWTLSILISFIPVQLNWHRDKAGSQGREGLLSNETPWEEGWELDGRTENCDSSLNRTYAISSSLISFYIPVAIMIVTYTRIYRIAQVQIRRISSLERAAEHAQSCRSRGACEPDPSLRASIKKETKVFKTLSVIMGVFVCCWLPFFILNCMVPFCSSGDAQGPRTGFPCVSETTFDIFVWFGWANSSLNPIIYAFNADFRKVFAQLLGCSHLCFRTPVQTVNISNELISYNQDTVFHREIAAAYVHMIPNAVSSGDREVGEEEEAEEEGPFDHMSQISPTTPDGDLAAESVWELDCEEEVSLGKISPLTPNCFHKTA

In the case of `C[C@H]1c2cccc(C(C)(C)O)c2C[C@H](CO)N1C(=O)Cc1c(Cl)cccc1Cl` [DETQ, 2-(2,6-dichlorophenyl)-1-((1S,3R)-3-(hydroxymethyl)-5-(2-hydroxypropan-2-yl)-1-methyl-3,4-dihydroisoquinolin-2(1H)-yl)ethan-1-one], the “agonist mode: direct agonist effect” value ([1]; DETQ 1 µM alone) is reported as “no direct agonist effect”, the “allosteric modulator mode: effect on agonist dose-response” value (“allosteric modulator mode: effect” below) ([1]; DETQ 1 µM, NE) is reported as “No allosteric effect” and the “allosteric modulator mode: potentiation of mini-Gs recruitment during DA titration” value ([2]; DETQ 100 nM) is reported as “potentiation of mini-Gs recruitment only in the case of the hmDRD1”. For the same compound, the “agonist mode: direct agonist effect” value ([2]; DETQ 1 µM alone) was “no direct agonist effect”, the “allosteric modulator mode: potentiation of mini-Gs recruitment during DA titration” value ([3]; DETQ 100 nM) was “strong and significant potentiation” and the “agonist mode: direct agonist effect” value ([3]; DETQ 1 µM alone) was “no direct agonist effect”. For the same compound, the “agonist mode: direct agonist effect” value ([4]; DETQ 1 µM alone) was “no direct agonist effect”, the “allosteric modulator mode: effect” value ([4]; DETQ 1 µM, 5HT) was “No allosteric effect” and the “agonist mode: direct agonist effect” value ([5]; DETQ 1 µM alone) was “no direct agonist effect”. The “allosteric modulator mode: effect” value ([5]; DETQ 1 µM, DA) was “No allosteric effect”.
